Where a name gives a salt, the structure may show the parent alone. Bounds are passed on as bounds.

The record followed here is patent US7655671B2, “Morphinan derivatives, the quaternary ammonium salts thereof substituted in position 14, method for production and use thereof” (priority 2002, dated 2010).

As usually defined, the melting point is the temperature of the solid-liquid transition. Take `C[N@+]1(CC2CC2)CC[C@]23c4c5ccc(O)c4O[C@H]2C(=O)CC[C@@]3(OCc2ccccc2-c2ccccc2)[C@H]1C5.[I-]`: the melting point fell in the range of 219 to 221 °C.

`C=CCN1CC[C@]23c4c5ccc(OC)c4O[C@H]2C(=O)CC[C@@]3(OCCCc2ccccc2)C1C5` showed a melting point of 129 to 130 °C.

In the case of `O=C1CC[C@@]2(OCc3ccccc3Cl)[C@H]3Cc4ccc(O)c5c4[C@@]2(CCN3CC2CC2)[C@H]1O5` (as salt: hydrochloride), the melting point was in the range of 165 to 168 °C.

For the compound `O=C1CC[C@@]2(OCc3ccccc3)[C@H]3Cc4ccc(O)c5c4[C@@]2(CCN3CC2CC2)[C@H]1O5` (as salt: hydrobromid), the melting point is > 210 °C (dec.).

Take `CCCCOc1cccc2c1[C@]13CC[N@@H+](CC4CC4)C(C2)[C@]1(OCCCc1ccccc1)CCC(=O)C3.[Cl-]` (stereo in doubt): the melting point was 172 to 177 °C.

The compound `COc1ccc2c3c1O[C@@]1(Cc4ccccc4)C(=O)C=C[C@@]4(OC)[C@@H](C2)N(C)CC[C@]314` (stereo in doubt) (as salt: hydrochloride) displayed a melting point of 164 to 166 °C.

Regarding `CCCCO[C@@]12CCC(=O)[C@@H]3Oc4c(O)ccc5c4[C@@]31CCN(CC1CC1)[C@@H]2C5` (as salt: hydrochloride), the melting point was 240 °C (dec.).

Take `COc1ccc2c(c1O)[C@]13CCN(C)[C@H](C2)[C@]1(OCc1ccccc1)CCC(=O)C3` (as salt: hydrochloride): the melting point is > 220 °C (dec.).

For the compound `COc1ccc2c3c1O[C@H]1C(=O)CC[C@@]4(OCCCc5ccccc5)[C@@H](C2)N(CC2CC2)CC[C@]314` (as salt: hydrochloride), the melting point was 130 to 133 °C.

Turning to `CCO[C@@]12CCC(=O)[C@@H](C)[C@@]13CCN(C)C2Cc1ccc(OC)c(OC)c13`, the melting point was 135 to 141 °C.

On to `CCCN1CC[C@]23c4c5ccc(O)c4O[C@H]2C(=O)CC[C@@]3(OCCC(C)C)[C@H]1C5` (as salt: hydrochloride), for which the melting point was 175 to 185 °C (dec.).

For `CCN1CC[C@]23c4c5ccc(OC)c4O[C@H]2C(=O)CC[C@@]3(OCCCc2ccccc2)[C@H]1C5`, the melting point is 95 to 101 °C.

Compound `COc1ccc2c(c1OC)[C@]13CCN(C)[C@H](C2)[C@]1(OCc1ccccc1)CCC(=O)[C@H]3C` showed a melting point of 166 to 167 °C.

With `COc1ccc2c(c1OC)[C@]13CCN(C)[C@H](C2)[C@]1(OCc1ccccc1)CCC(=O)C3` (as salt: hydrochloride), the melting point lay within 140 to 145 °C.

Turning to `O=C1CC[C@@]2(OCCCc3ccccc3)C3Cc4ccc(O)c5c4[C@@]2(CCN3CC2CCCO2)[C@H]1O5` (stereo partly drawn) (as salt: hydrochloride) [Compound 10, 4,5α-epoxy-17-[2-((R,S)-tetrahydrofuran-2-yl)methyl]-3-hydroxy-14β-(3-phenylpropyloxy)morphinan-6-one hydrochloride], the melting point fell in the range of 170 to 172 °C.

For `CCCCOC12CCC(=O)C3(Cc4ccccc4)Oc4c(O)ccc5c4[C@@]31CC[N+](C)(C)C2C5.[I-]` (stereo partly shown), the melting point was in the range of 188 to 195 °C.

On to `COc1ccc2c(c1O)[C@]13CCN(C)[C@H](C2)[C@]1(OCCCc1ccccc1)CCC(=O)[C@H]3C` (as salt: hydrochloride), for which the melting point is > 210 °C (dec.).

As to `COc1ccc2c(c1O)[C@]13CCN(C)[C@H](C2)[C@]1(OCCCc1ccccc1)CCC(=O)C3`, the melting point is > 258 °C (dec.).

Compound `CCCCO[C@@]12CCC(=O)[C@@H]3Oc4c(O)ccc5c4[C@@]31CC[N+](C)(C)[C@@H]2C5.[I-]` yielded a melting point of 180 to 185 °C.

Compound `Cc1ccccc1CO[C@@]12CCC(=O)[C@@H]3Oc4c(O)ccc5c4[C@@]31CCN(CC1CC1)[C@@H]2C5` (as salt: hydrochloride) showed a melting point of 198 to 200 °C.

In the case of `CCO[C@@]12CCC(=O)[C@@H](C)[C@@]13CCN(C)[C@@H]2Cc1ccc(OC)c(O)c13`, the melting point fell in the range of 122 to 129 °C.

Consider `C[N@+]1(CC2CC2)CC[C@]23c4c5ccc(O)c4O[C@H]2C(=O)CC[C@@]3(OCc2ccc(Cl)cc2)[C@H]1C5.[I-]`, for which the melting point was 214 to 219 °C.
